# Entries after “also recorded” stand apart in the source; their conditions may differ. Where a SMILES comes first, the peptide text is derived from it. Bridges are numbered along the chain shown (N, C = ends).
# Assays:
# [1] = system: MDA-MB-231 cells; assay: Scratch wound assay (cell migration); type: cell-based, human; conditions: 12.5 μM, DMEM/F12 containing 0.2% BSA
# Protocol: The MDA-MB-231 cells were seeded into a six-well plate at an appropriate density to form a single layer of cells. After 12 h, a sterile 200 μl pipette tip was used to produce a linear scraping wound, which was cultured with DMEM/F12 containing 0.2% BSA and different concentrations of inhibitors. The cells were imaged at 0 h, 24 h and 48 h, after scratch induction. ImageJ software was used to analyze the images and quantify cell migration.
# [2] = system: MDA-MB-231 cells; assay: Quantitative real-time PCR validation of migration and invasion-related genes; type: cell-based, human; conditions: JZTX-14-treated MDA-MB-231 cells
# [3] = system: MDA-MB-231 cells; assay: CCK-8 cell proliferation assay; type: cell-based, human
# [4] = system: MDA-MB-231 cells; assay: Transwell assay (cell migration/invasion); type: cell-based, human; conditions: 24 h incubation, crystal violet staining
# Protocol: Cell migration assay was performed using 24-well transwell plate (Corning, United States). 5×10^4 cells/well were seeded in the upper chamber in DMEM/F12 medium containing 0.1% BSA, the lower chamber contained DMEM/F12% and […]. After 24 h incubation, the cells on the filter membrane were washed three times with PBS, then fixed with 4% paraformaldehyde for 30 min and stained with 0.1% crystal violet for 20 min. The cells on the filter were observed by microscopy and the number of cells was determined using the quantification software ImageJ.
# [5] = system: MDA-MB-231 cells; assay: RNA sequencing, differentially expressed genes; type: cell-based, human; conditions: 12.5 μM, 48 h
# Protocol: Total RNA was extracted from untreated (C) MDA-MB-231 cells and MDA-MB-231 cells treated with a concentration of 12.5 μM JZTX-14 (GL) for 48 h using TRIzol reagent. RNA concentration was first quantified using a NanoDrop 2000 spectrophotometer and further accurately quantified using an Agilent 2100/4200 for RNA sample mass and concentration. The extracted total RNA was stored at −70°C. The sample mRNA was enriched with magnetic beads with Oligo (dT), and then the mRNA was broken into short fragments which subsequently used as a template to synthesize the first strand of cDNA with six-base random primers. The second cDNA strand was synthesized by adding buffer, dNTPs, and enzymes, and the acquired double-stranded cDNA was purified, end-repaired, A-tailed, and connected to sequencing junctions. Next, the fragment size was selected and the cDNA library was enriched by PCR amplification, followed by accurate qualification of the effective concentration of the library using qPCR. […]
# The reads after rRNA removal were compared with the reference genome using Hisat2 software. Gene level quantification was performed separately for each sample using FeatureCount and combined to obtain the gene expression matrix of all samples. Correlation coefficients between samples were calculated based on the expression values (FPKM) of genes in each sample. […]
# [6] = system: MDA-MB-231 cells; assay: Hoechst 33342/PI double staining assay; type: cell-based, human; conditions: 0, 6, 12.5 μM; 48 h
# Protocol: The cells were seeded in a 6-well plate, and after their adherence to the plate, the medium was changed with a complete medium containing different concentrations of inhibitors. After 48 h of treatment, the cells were washed three times with 4°C cold PBS, and incubated with 5 μl/ml Hoechst 33,342 for 15 min. The cells were washed again three times using PBS and incubated with 5 μl/ml PI for 15 min.
# [7] = biological target: T1, MDA-MB-231 sodium channels (Homo sapiens, UniProt Q14524); assay: Whole-cell patch clamp, sodium currents in MDA-MB-231 cells; type: cell-based
# T1 construct: host or cells: MDA-MB-231
# Protocol: Sodium currents in experimental cells were recorded at room temperature (22°C–25°C) using an EPC-10 patch-clamp amplifier (HEKA, Germany) in a whole-cell patch-clamp configuration. Recording pipettes were made from borosilicate glass capillaries (VWR, United States) using a PC-10 puller (Narishige, Japan). The inner solution (mM): KCl 130, NaCl 15, CaCl2 0.37, MgCl2 1 EGTA 1, HEPES 10, pH 7.2, resistance was measured as 1.8 MO. The outer solution was composed of (mM): NaCl 140, KCl 3, MgCl2 1, CaCl2 1, HEPES 10, pH 7.2. To minimize voltage errors, the series resistance compensation was set to 80%. The P/4 protocol was used to subtract the linear capacitance and leakage current. Experimental data were acquired and analyzed using the pulse fit 8.0 program (HEKA, Germany). The needed concentrations of toxin dissolved in external solution were applied to the cell surface by microinjector.
# The biological activity of synthetic JZTX-14 in MDA-MB-231 cells was recorded using the whole-cell patch-clamp method. MDA-MB-231 sodium channels are sensitive to JZTX-14. […] The inward sodium current was induced by a 50 ms depolarisation potential of −30 mV at a holding potential of −100 mV (Figure 3A). The inhibition by JZTX-14 was concentration-dependent (Figure 3B). […] Next, we determined the effects of JZTX-14 on the current-voltage (I–V) curves of sodium channels resulting from a series of currents induced by a set of depolarising potentials ranging from −100 to +60 mV when cells were held at −100 mV (Figure 3C). […] We also investigated the effect of JZTX-14 on the steady-state inactivation of sodium channels in MDA-MB-231 cells. […] shifted the inactivation curves for sodium channels by approximately 10 mV (Figure 3D).
smiles,measurement,setting,value
"CC[C@H](C)[C@H](NC(=O)[C@@H]1CSSC[C@@H]2NC(=O)[C@@H]3CCCN3C(=O)[C@@H]3CCCN3C(=O)[C@H](CCC(N)=O)NC(=O)CNC(=O)[C@@H]3CCCN3C(=O)[C@H](Cc3c[nH]cn3)NC(=O)[C@@H]3CSSC[C@H](NC(=O)[C@H](C)NC(=O)[C@H](CC(C)C)NC(=O)CNC(=O)[C@H](CO)NC(=O)[C@H](CSSC[C@H](NC(=O)CN)C(=O)N[C@@H](CCC(N)=O)C(=O)N[C@@H](CCCCN)C(=O)N[C@@H](Cc4ccccc4)C(=O)N[C@@H](Cc4ccccc4)C(=O)N[C@@H](Cc4c[nH]c5ccccc45)C(=O)N[C@@H]([C@@H](C)O)C(=O)N3)NC2=O)C(=O)N[C@@H]([C@@H](C)O)C(=O)N[C@@H](Cc2c[nH]c3ccccc23)C(=O)N2CCC[C@H]2C(=O)N[C@@H]([C@@H](C)O)C(=O)N[C@@H](CCC(=O)O)C(=O)N[C@@H]([C@@H](C)CC)C(=O)N1)C(=O)N[C@@H](CC(C)C)C(N)=O [JZTX-14] (H-GCQKFFWTCHPGQPPCCSGLACTWPTEICIL-NH2; disulfide 2-17, 9-22, 16-29)",Inhibition of migration (scratch assay),[1]; 24 h,72%
same,Inhibition of migration (scratch assay),[1]; 48 h,80%
same,ANGPTL4 expression (qPCR),[2],downregulated
same,FBXO2 expression (qPCR),[2],downregulated
same,GJB3 expression (qPCR),[2],downregulated
same,HMGN5 expression (qPCR),[2],downregulated
same,IL-24-F expression (qPCR),[2],upregulated
same,PLAC1 expression (qPCR),[2],downregulated
same,S100A4 expression (qPCR),[2],downregulated
same,SERPINB2 expression (qPCR),[2],upregulated
same,Cell survival rate (CCK-8),"[3]; 1.5, 3, 6, 12.5, 25, 50, and 100 μM, 24 h, OD 450 nm",did not affect the survival rate
same,Cell survival rate (CCK-8),"[3]; 25, 50, and 100 μM, 48 h, not statistically different compared to the control group",slightly reduced the survival rate
same,Inhibition of cell invasion (transwell),[4]; 6 μM,50%
same,Inhibition of cell invasion (transwell),[4]; 12.5 μM,75%
same,Downregulated genes associated with migration and invasion,[5],"ANGPTL4, S100A4, GJB3, FBXO2, PLAC1, and HMGN5"
same,Upregulated genes associated with migration and invasion,[5],IL-24-F and SERPINB2
same,Apoptosis and necrosis (Hoechst 33342/PI staining),[6],no apoptosis and necrosis; also recorded: no significant effect on the necrosis
same,Inhibition of inward sodium currents (in words),"[7]; 500 nM and 1 μM, 50 ms depolarisation to −30 mV, holding potential −100 mV",inhibited the inward sodium currents
same,Shift of steady-state inactivation curves of sodium channels,"[7]; 1 μM (Figure 3D), 6 cells per point, direction not given",approximately 10 mV
same,Shift of activation thresholds of sodium channels,"[7]; 1 μM, in the depolarising direction, I–V curves from −100 to +60 mV, holding potential −100 mV",approximately 10 mV
same,IC50,"[7]; Hill equation fit, 50 ms depolarisation to −30 mV, holding potential −100 mV, synthetic JZTX-14, 6 cells per point, read-out: IC50, inhibition of sodium current",401 nM

# Reference: PMC10076671, “Spider venom-derived peptide JZTX-14 prevents migration and invasion of breast cancer cells via inhibition of sodium channels” (Frontiers in Pharmacology, 2023)
